In patent US20110201569A1, “Methods For Treating Myocardial Disorders” (priority 2009, published 2011):
Entries after “also recorded” stand apart in the source; their conditions may differ.

Tests used:
Type in all cases: in vivo, mouse
TIMP-4 = test: qRT-PCR of TIMP-4 mRNA in left ventricle after TAC/sham
Experimental: (§1) 11 to 13 week old male C57BL/6 mice were purchased from Charles River (Germany). Mice were housed in individually ventilated pathogen-free cages with free access to water and standard rodent chow. The animals were handled according to the principles of laboratory animal care (NIH publication No. 85-23, revised 1996), and animal procedures were approved by the local committee for animal care.
(§2) The first injection was performed 5 min prior to TAC or sham-operation procedure (described below) and repeated 4, 8, 12, 24, 36, 48 and 60 hrs after surgery. […]
(§3) Quantitative real-time PCR analysis was completed. […] RNA was dissolved in 100 μl of RNase-free water, and concentration was determined photometrically (absorbance at 260 nm) before storage at −80° C. […]
(§4) Real-time PCR was performed according to the manufacturer's protocol. […] Each sample was measured in triplicate wells and underwent 40 cycles of amplification on an ABI PRISM® Sequence Detection System (Applied Biosystems). CT values were determined with SDS Software 2.2 (Applied Biosystems) and relative quotients (RQ) were calculated following the ΔΔCT method (RQ target gene/GAPDH).
(§5) Statistics were calculated using Prism 4.05 (GraphPad Software Inc., CA, USA). All values are expressed as mean (M)±SEM. […]

IL-6 = test: qRT-PCR of IL-6 mRNA in left ventricle after TAC/sham
Experimental: as §1, §2, §3, §4, §5

C57BL/6 mice = test: Cardiac biometric parameters (left ventricular weight) three days after transverse aortic constriction (TAC) or sham operation
Text: as §1
To allow for repetitive intravenous injections, a venous port was implanted. Mice were anesthetized with isoflurane 2.0 vol % (Forene®, Abbott GmbH, Germany). Body temperature was maintained at 37° C. The jugular vein was exposed and a catheter (outer diameter 0.64 mm, Dow Corning Europe, Wiesbaden, Germany) inserted into the vessel via a small incision. The catheter was secured with a silk thread and tissue adhesive (Histoacryl, Braun, Germany). Finally, the catheter was tunneled subcutaneously and connected to an extracutaneous port through an incision between scapulae.
The first injection was performed 5 min prior to TAC or sham-operation procedure (described below) and repeated 4, 8, 12, 24, 36, 48 and 60 hrs after surgery. Animals were randomly assigned into two groups, receiving either a tetrasodium salt of the compound of formula 1 (hereinafter “Eritoran tetrasodium”) or placebo. The catheter was flushed with 50 μl 0.9% NaCl before and 100 μl after each injection of 50 μl Eritoran tetrasodium (2.5 mg/ml vehicle; 5 mg/kg bodyweight/application; dosage adopted from Shimamoto et al., Circulation 2006, 114: 1270-1274) or placebo solution.
Treatment groups were separated into two subgroups, undergoing transverse aortic constriction (TAC) or sham operation. Surgery for TAC was achieved as published previously (see, e.g., Baumgarten et al., Circulation 2002, 105: 2192-2197 and Baumgarten et al., Basic Res Cardiol 2006, 101: 427-435). Mice were intubated in a supine position and mechanical ventilation was initiated (MiniVent 845, Hugo Sachs Elektronik, Germany). A left parasternal incision was performed. A suture was passed underneath the aorta and tied down on a 27 Gauge needle, which was immediately removed and allowed to achieve a standardised and previously validated decreased diameter of the aorta. For sham operation the suture was passed underneath the aorta without ligation. For analgesia, mice received a single intraperitoneal injection of 0.065 mg/kg BW buprenorphine.
Three days after TAC or sham operation, the impact on cardiac biometric parameters was investigated. Body weight was registered. Heart and lung were excised, prepared and immediately measured. Total heart weight, left ventricular weight as well as lung weight and tibia length were recorded. Ventricles were snap frozen in liquid nitrogen and kept at −80° C.
Statistics were calculated using Prism 4.05 (GraphPad Software Inc., CA, USA). All values are expressed as mean (M)±SEM. One-way ANOVA with Newman-Keuls post-hoc testing was performed for statistical analysis with the exception of TIMP and cytokine expression which were analysed with Kruskal-Wallis and Dunn's multiple comparison post-hoc testing Impact of TAC-Eritoran on IL-10 expression was analysed with Two-way ANOVA. Differences between experimental groups were considered to be significant with p<0.05.
Example 2 was completed in a manner similar to Example 1, with minor changes as described below.
With the consent of proper authority (LANUV), 12 week old male C57BL/6-mice were anesthetized with Isofluran (2.0 Vol. %) and a catheter was implanted into the right jugular vein. Afterwards, either transverse aortic constriction (TAC) or a sham operation was performed. In TAC animals, the aortic diameter was reduced by 70% with a 6-0 silk filament. Mice received either the compound of formula (I) or placebo i.v. 5 minutes prior to TAC/sham-operation and 6 h, 12 h, 24 h, 36 h, 48 h and 60 h after surgery. […]

TLR4 = test: qRT-PCR of TLR4 mRNA in left ventricle after TAC/sham
Experimental: Treatment groups were separated into two subgroups, undergoing transverse aortic constriction (TAC) or sham operation. […]
Statistics were calculated using Prism 4.05 (GraphPad Software Inc., CA, USA). All values are expressed as mean (M)±SEM. One-way ANOVA with Newman-Keuls post-hoc testing was performed for statistical analysis with the exception of TIMP and cytokine expression which were analysed with Kruskal-Wallis and Dunn's multiple comparison post-hoc testing Impact of TAC-Eritoran on IL-10 expression was analysed with Two-way ANOVA. […]

[1] = Example 1, TAC vs sham-operated, 5 mg/kg i.v. per application, three days after surgery
[2] = Example 2, TAC treated vs TAC-placebo

SMILES | TIMP-4 mRNA expression (TIMP-4; Example 1, sham and TAC groups, three days after surgery) | IL-6 mRNA level (IL-6; Example 1, TAC, three days after surgery, qRT-PCR, M ± SEM) | left ventricular weight/body weight (LVW/BW) (C57BL/6 mice; [1]) | left ventricular weight/tibia length (LVW/TL) (C57BL/6 mice; [1]) | left ventricular weight (LVW) (C57BL/6 mice; Example 1, TAC, 5 mg/kg i.v. per application, three days after surgery) | cardiac hypertrophy after TAC (C57BL/6 mice; Example 1, TAC, 5 mg/kg i.v. per application, three days after surgery, 5 mg/kg) | TLR4 mRNA expression (TLR4; Example 1, TAC, three days after surgery) | TLR4 mRNA expression (TLR4; Example 1, sham operation, three days after surgery) | TIMP-4 mRNA expression (TIMP-4; [2]) | IL-6 mRNA expression (IL-6; [2]) | left ventricle weight (LVW) (C57BL/6 mice; Example 2, TAC, i.v. 5 min prior to and 6-60 h after surgery, three days after surgery) | development of cardiac hypertrophy (C57BL/6 mice; Example 2, murine model of transverse aortic constriction (TAC)) | TLR4 mRNA expression (TLR4; [2])
CCCCCC/C=C\CCCCCCCCCC(=O)N[C@H]1[C@H](OC[C@H]2O[C@H](OP(=O)([O-])[O-])[C@H](NC(=O)CC(=O)CCCCCCCCCCC)[C@@H](OCCCCCCCCCC)[C@@H]2O)O[C@H](COC)[C@@H](OP(=O)([O-])[O-])[C@@H]1OCC[C@@H](CCCCCCC)OC.[Na+].[Na+].[Na+].[Na+] [Eritoran tetrasodium] | no significant differences between groups | 16.60 ± 7.55 | did not differ from sham-operated mice | did not differ from sham-operated mice | 81.32 ± 4.21 mg | decreases cardiac hypertrophy after TAC; also recorded: diminished cardiac hypertrophy induced by pressure overload | no significant effects | had no effects on the mRNA expression |  |  |  |  | 
CCCCCC/C=C\CCCCCCCCCC(=O)N[C@H]1[C@H](OC[C@H]2O[C@H](OP(=O)(O)O)[C@H](NC(=O)CC(=O)CCCCCCCCCCC)[C@@H](OCCCCCCCCCC)[C@@H]2O)O[C@H](COC)[C@@H](OP(=O)(O)O)[C@@H]1OCC[C@@H](CCCCCCC)OC [compound of formula (I), α-D-Glucopyranose, 3-O-decyl-2-deoxy-6-O-[2-deoxy-3-O-[(3R)-3-methoxydecyl)-6-O-methyl-2-[[(−11Z)-1-oxo-11-octadecenyl)amino]-4-O-phosphono-β-D-glucopyranosyl]-2-[(1,3-dioxotetradecyl)amino]-1-(dihydrogen phosphate)] |  |  |  |  |  |  |  |  | higher | lower | 81.32 ± 4.2 mg | prevents the development of cardiac hypertrophy | significantly reduced
